Data reported in US10464947B2 (Incyte Corporation, priority 2013, dated 2019).

The molecules below were run on KMS.12.BM cells (assay: KMS.12.BM Cell Viability Assay (Example B1)). Settings: Homo sapiens, 72 h, 3 days, Cell Titer-GLO, read-out: KMS cellular IC50.
Format: cell-based, human
Description: KMS.12.BM cell line (human myeloma) was purchased from JCRB (Osaka, Japan) and maintained in RPMI with 10% FBS culture medium. To measure the cytotoxic activity of the compounds through ATP quantitation, the KMS.12.BM cells are plated in the RPMI culture medium at 5000 cells/well/per 100 μL into a 96-well polystyrene clear black tissue culture plate (Greiner-bio-one through VWR, NJ), in the presence or absence of a concentration range of test compounds. After 3 days, […] Cell Titer-GLO Luminescent (Promega, Madison, Wis.) cell culture agent is added to each well for 10 min. at room temperature to stabilize the luminescent signal. This determines the number of viable cells in culture based on quantitation of the ATP present, which signals the presence of metabolically active cells.

**Q.** `CCNC(=O)COc1ccccc1C1COc2c(-c3c(C)noc3C)ccc3[nH]c(=O)n1c23` (centres unmarked) [Example 22, 2-{2-[7-(3,5-Dimethylisoxazol-4-yl)-2-oxo-1,2,4,5-tetrahydroimidazo[1,5,4-de][1,4]benzoxazin-4-yl]phenoxy}-N-ethylacetamide] was tested. Which IC50 did it give?
**A.** < 1000 nM

**Q.** Which IC50 does the source give for `CCOC(=O)C1Oc2c(-c3c(C)noc3C)ccc3[nH]c(=O)n(c23)C1c1ccccc1` (centres unmarked) [Example 23, Ethyl 7-(3,5-dimethylisoxazol-4-yl)-2-oxo-4-phenyl-1,2,4,5-tetrahydroimidazo[1,5,4-de][1,4]benzoxazine-5-carboxylate] here?
**A.** < 1000 nM

**Q.** For `Cn1nccc1-c1ccc2[nH]c(=O)n3c2c1OCC3c1ccccc1` (centres unmarked) [Example 35, 7-(1-Methyl-1H-pyrazol-5-yl)-4-phenyl-4,5-dihydroimidazo[1,5,4-de][1,4]benzoxazin-2(1H)-one], which IC50 is on record?
**A.** < 1000 nM

**Q.** Which IC50 does the source give for `Cn1nccc1-c1cc(Br)c2[nH]c(=O)n3c2c1OCC3c1ccccc1` (centres unmarked) [Example 36, 9-Bromo-7-(1-methyl-1H-pyrazol-5-yl)-4-phenyl-4,5-dihydroimidazo[1,5,4-de][1,4]benzoxazin-2(1H)-one] here?
**A.** < 1000 nM

**Q.** Which IC50 does the source give for `Cc1noc(C)c1-c1ccc2ncn3c2c1OCC3c1ccccc1` (centres unmarked) [Example 39, 7-(3,5-Dimethylisoxazol-4-yl)-4-phenyl-4,5-dihydroimidazo[1,5,4-de][1,4]benzoxazine] here?
**A.** < 1000 nM

**Q.** Which IC50 does the source give for `Cc1noc(C)c1-c1ccc2nc(-c3ccccc3)n3c2c1OCC3c1ccccc1` (centres unmarked) [Example 41, 7-(3,5-Dimethylisoxazol-4-yl)-2,4-diphenyl-4,5-dihydroimidazo[1,5,4-de][1,4]benzoxazine] here?
**A.** < 1000 nM

**Q.** `Cc1noc(C)c1-c1cc(C#N)c2[nH]c(=O)n3c2c1OCC3c1ccccc1` (centres unmarked) [Example 42, 7-(3,5-Dimethylisoxazol-4-yl)-2-oxo-4-phenyl-1,2,4,5-tetrahydroimidazo[1,5,4-de][1,4]benzoxazine-9-carbonitrile] was tested. Which IC50 did it give?
**A.** < 1000 nM

**Q.** For `Cc1noc(C)c1-c1cc(-c2ccccc2)c2[nH]c(=O)n3c2c1OCC3c1ccccc1` (centres unmarked) [Example 43, 7-(3,5-Dimethylisoxazol-4-yl)-4,9-diphenyl-4,5-dihydroimidazo[1,5,4-de][1,4]benzoxazin-2(1H)-one], which IC50 is on record?
**A.** < 1000 nM

**Q.** `Cc1noc(C)c1-c1cc(Br)c2[nH]c(=O)n3c2c1OCC3c1ccccc1` (centres unmarked) [Example 45, 9-Bromo-7-(3,5-Dimethylisoxazol-4-yl)-4-phenyl-4,5-dihydroimidazo[1,5,4-de][1,4]benzoxazin-2(1H)-one] was tested. Which IC50 did it give?
**A.** < 1000 nM

**Q.** For `Cc1noc(C)c1-c1cc(C)c2[nH]c(=O)n3c2c1OCC3c1ccccc1` (centres unmarked) [Example 46, 7-(3,5-Dimethylisoxazol-4-yl)-9-methyl-4-phenyl-4,5-dihydroimidazo[1,5,4-de][1,4]benzoxazin-2(1H)-one], which IC50 is on record?
**A.** < 1000 nM

**Q.** How did the IC50 turn out when `Cc1noc(C)c1-c1ccc2[nH]c(=O)n3c2c1OCC3c1ccc(F)cc1` (centres unmarked) [Example 49, 7-(3,5-Dimethylisoxazol-4-yl)-4-(4-fluorophenyl)-4,5-dihydroimidazo[1,5,4-de][1,4]benzoxazin-2(1H)-one] was run?
**A.** < 1000 nM

**Q.** How did the IC50 turn out when `Cc1noc(C)c1-c1ccc2[nH]c(=O)n3c2c1OCC3c1ccccc1OCC(=O)N(C)C` (centres unmarked) [Example 51, 2-{2-[7-(3,5-Dimethylisoxazol-4-yl)-2-oxo-1,2,4,5-tetrahydroimidazo[1,5,4-de][1,4]benzoxazin-4-yl]phenoxy}-N,N-dimethylacetamide] was run?
**A.** < 1000 nM

**Q.** How did the IC50 turn out when `Cc1noc(C)c1-c1cc(-c2cccnc2)c2[nH]c(=O)n3c2c1OCC3c1ccccc1` (centres unmarked) [Example 52, 7-(3,5-Dimethylisoxazol-4-yl)-4-phenyl-9-pyridin-3-yl-4,5-dihydroimidazo[1,5,4-de][1,4]benzoxazin-2(1H)-one] was run?
**A.** < 1000 nM

**Q.** Which IC50 does the source give for `Cc1noc(C)c1-c1ccc2nc(N3CCOCC3)n3c2c1OCC3c1ccccc1` (centres unmarked) [Example 53, 7-(3,5-Dimethylisoxazol-4-yl)-2-morpholin-4-yl-4-phenyl-4,5-dihydroimidazo[1,5,4-de][1,4]benzoxazine] here?
**A.** < 1000 nM

**Q.** Which IC50 does the source give for `Cc1noc(C)c1-c1ccc2nc(N3CCCC3)n3c2c1OCC3c1ccccc1` (centres unmarked) [Example 54, 7-(3,5-Dimethylisoxazol-4-yl)-4-phenyl-2-pyrrolidin-1-yl-4,5-dihydroimidazo[1,5,4-de][1,4]benzoxazine] here?
**A.** < 1000 nM

**Q.** With `Cc1noc(C)c1-c1ccc2nc(N3CCC(O)C3)n3c2c1OCC3c1ccccc1` (centres unmarked) [Example 55, 1-[7-(3,5-Dimethylisoxazol-4-yl)-4-phenyl-4,5-dihydroimidazo[1,5,4-de][1,4]benzoxazin-2-yl]pyrrolidin-3-ol] as the molecule, how does the IC50 read?
**A.** < 1000 nM

**Q.** For `Cc1noc(C)c1-c1ccc2nc(N3CCCCC3)n3c2c1OCC3c1ccccc1` (centres unmarked) [Example 56, 7-(3,5-Dimethylisoxazol-4-yl)-4-phenyl-2-piperidin-1-yl-4,5-dihydroimidazo[1,5,4-de][1,4]benzoxazine], which IC50 is on record?
**A.** < 1000 nM

**Q.** `Cc1noc(C)c1-c1ccc2nc(N3CCC(O)CC3)n3c2c1OCC3c1ccccc1` (centres unmarked) [Example 57, 1-[7-(3,5-Dimethylisoxazol-4-yl)-4-phenyl-4,5-dihydroimidazo[1,5,4-de][1,4]benzoxazin-2-yl]piperidin-4-ol] was tested. Which IC50 did it give?
**A.** < 1000 nM

**Q.** How did the IC50 turn out when `Cc1noc(C)c1-c1ccc2nc(N3CCCC(O)C3)n3c2c1OCC3c1ccccc1` (centres unmarked) [Example 58, 1-[7-(3,5-Dimethylisoxazol-4-yl)-4-phenyl-4,5-dihydroimidazo[1,5,4-de][1,4]benzoxazin-2-yl]piperidin-3-ol] was run?
**A.** < 1000 nM

**Q.** How did the IC50 turn out when `Cc1noc(C)c1-c1ccc2nc(N3CC(O)C3)n3c2c1OCC3c1ccccc1` (centres unmarked) [Example 59] was run?
**A.** < 1000 nM

**Q.** Which IC50 does the source give for `Cc1noc(C)c1-c1ccc2nc(N3CCN(C(=O)OC(C)(C)C)CC3)n3c2c1OCC3c1ccccc1` (centres unmarked) [Example 60] here?
**A.** < 1000 nM

**Q.** For `C=Cc1nc2ccc(-c3c(C)noc3C)c3c2n1[C@@H](c1ccccn1)CO3` [Example 88, (4S)-7-(3,5-Dimethylisoxazol-4-yl)-4-pyridin-2-yl-2-vinyl-4,5-dihydroimidazo[1,5,4-de][1,4]benzoxazine], which IC50 is on record?
**A.** < 1000 nM

**Q.** `Cc1noc(C)c1-c1ccc2nc([C@@H](O)CO)n3c2c1OC[C@@H]3c1ccccn1` [Example 89, (1R)-1-[(4S)-7-(3,5-Dimethylisoxazol-4-yl)-4-pyridin-2-yl-4,5-dihydroimidazo[1,5,4-de][1,4]benzoxazin-2-yl]ethane-1,2-diol] was tested. Which IC50 did it give?
**A.** < 1000 nM

**Q.** `Cc1noc(C)c1-c1ccc2nc(C(C)O)n3c2c1OC[C@@H]3c1ccccn1` (stereo partly drawn) [Example 90, 1-[(4S)-7-(3,5-Dimethylisoxazol-4-yl)-4-pyridin-2-yl-4,5-dihydroimidazo[1,5,4-de][1,4]benzoxazin-2-yl]ethanol] was tested. Which IC50 did it give?
**A.** < 1000 nM

**Q.** `Cc1noc(C)c1-c1ccc2nc(C(=O)N(C)C)n3c2c1OC[C@@H]3c1ccccn1` [Example 91, (4S)-7-(3,5-Dimethylisoxazol-4-yl)-N,N-dimethyl-4-pyridin-2-yl-4,5-dihydroimidazo[1,5,4-de][1,4]benzoxazine-2-carboxamide] was tested. Which IC50 did it give?
**A.** < 1000 nM

**Q.** How did the IC50 turn out when `Cc1noc(C)c1-c1ccc2ncn3c2c1OC[C@@H]3c1ccccn1` [Example 92, (4S)-7-(3,5-Dimethylisoxazol-4-yl)-4-pyridin-2-yl-4,5-dihydroimidazo[1,5,4-de][1,4]benzoxazine] was run?
**A.** < 1000 nM

**Q.** For `Cc1noc(C)c1-c1ccc2nc(C(=O)OC(C)(C)C)n3c2c1OC[C@@H]3c1ccccn1` [Example 93, tert-Butyl (4S)-7-(3,5-dimethylisoxazol-4-yl)-4-pyridin-2-yl-4,5-dihydroimidazo[1,5,4-de][1,4]benzoxazine-2-carboxylate], which IC50 is on record?
**A.** < 1000 nM

**Q.** With `Cc1noc(C)c1-c1ccc2nc(C3=CCN(C(=O)OC(C)(C)C)CC3)n3c2c1OC[C@@H]3c1ccccn1` [Example 97, tert-Butyl 4-[(4S)-7-(3,5-dimethylisoxazol-4-yl)-4-pyridin-2-yl-4,5-dihydroimidazo[1,5,4-de][1,4]benzoxazin-2-yl]-3,6-dihydropyridine-1 (2H)-carboxylate] as the molecule, how does the IC50 read?
**A.** < 1000 nM

**Q.** With `Cc1noc(C)c1-c1ccc2nc(C3CCN(C(=O)OC(C)(C)C)CC3)n3c2c1OC[C@@H]3c1ccccn1` [Example 100, tert-Butyl 4-[(4S)-7-(3,5-dimethylisoxazol-4-yl)-4-pyridin-2-yl-4,5-dihydroimidazo[1,5,4-de][1,4]benzoxazin-2-yl]piperidine-1-carboxylate] as the molecule, how does the IC50 read?
**A.** < 1000 nM

**Q.** Which IC50 does the source give for `Cc1noc(C)c1-c1ccc2nc(C3CCNCC3)n3c2c1OC[C@@H]3c1ccccn1` [Example 103] here?
**A.** < 1000 nM

**Q.** With `Cc1noc(C)c1-c1ccc2nc(C3=CCNCC3)n3c2c1OC[C@@H]3c1ccccn1` [Example 104, (4S)-7-(3,5-dimethylisoxazol-4-yl)-4-pyridin-2-yl-2-(1,2,3,6-tetrahydropyridin-4-yl)-4,5-dihydroimidazo[1,5,4-de][1,4]benzoxazine] as the molecule, how does the IC50 read?
**A.** < 1000 nM

**Q.** How did the IC50 turn out when `Cc1noc(C)c1-c1ccc2nc(C3CCN(C(=O)C4CC4)CC3)n3c2c1OC[C@@H]3c1ccccn1` [Example 111, (4S)-2-[1-(cyclopropylcarbonyl)piperidin-4-yl]-7-(3,5-dimethylisoxazol-4-yl)-4-pyridin-2-yl-4,5-dihydroimidazo[1,5,4-de][1,4]benzoxazine] was run?
**A.** < 1000 nM

Same assay, conditions: Homo sapiens, KMS-12-BM, 72 h, 3 days, Cell Titer-GLO, read-out: KMS cellular IC50

**Q.** For `Cc1noc(C)c1-c1ccc2nc(NC(C)(C)CO)n3c2c1OCC3c1ccccc1` (centres unmarked) [Example 33, 2-{[7-(3,5-Dimethylisoxazol-4-yl)-4-phenyl-4,5-dihydroimidazo[1,5,4-de][1,4]benzoxazin-2-yl]amino}-2-methylpropan-1-ol], which IC50 is on record?
**A.** 1000 to 10000 nM

**Q.** For `Cc1cc(-c2ccnn2C)c2c3c1[nH]c(=O)n3C(c1ccccc1)CO2` (centres unmarked) [Example 37, 9-Methyl-7-(1-methyl-1H-pyrazol-5-yl)-4-phenyl-4,5-dihydroimidazo[1,5,4-de][1,4]benzoxazin-2(1H)-one], which IC50 is on record?
**A.** < 1000 nM

**Q.** Which IC50 does the source give for `Cc1noc(C)c1-c1ccc2nc(N3CCNCC3)n3c2c1OCC3c1ccccc1` (centres unmarked) [Example 40, 7-(3,5-Dimethylisoxazol-4-yl)-4-phenyl-2-piperazin-1-yl-4,5-dihydroimidazo[1,5,4-de][1,4]benzoxazine] here?
**A.** < 1000 nM
